Data: the supplement of paper PMC10307832

Key:
Assay in all cases: relative viability (nuclei count vs DMSO), 5 days (fraction); higher = more cells survive
Midostaurin + Alpelisib = compound: CO[C@@H]1[C@H](N(C)C(=O)c2ccccc2)C[C@H]2O[C@]1(C)n1c3ccccc3c3c4c(c5c6ccccc6n2c5c31)C(=O)NC4 [Midostaurin] + Cc1nc(NC(=O)N2CCC[C@H]2C(N)=O)sc1-c1ccnc(C(C)(C)C(F)(F)F)c1 [Alpelisib] (partner 2 µM)
Outline: (§1)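 One day after seeding in 1536-well plates, lung cancer cell lines were dosed by pin tool. Dosing was either single-drug or a fixed anchor-drug dose plus five library-drug doses (not always all listed) in √10 steps. After 5 days, nuclei were stained in one fix-and-stain step and counted on 4× images, and relative viability is the nuclei count of treated wells over that of vehicle wells, given as the median of duplicate plates.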

[1] = compound: COc1cc(-c2nn([C@H]3CC[C@H](N4CCN(C(C)=O)CC4)CC3)c3ncnc(N)c23)ccc1NC(=O)c1cc2ccccc2n1C + N=C(N)NC(=N)NCCc1ccccc1 [Phenformin] (partner 250 µM)
Outline: as §1

Midostaurin + Lapatinib = compound: CO[C@@H]1[C@H](N(C)C(=O)c2ccccc2)C[C@H]2O[C@]1(C)n1c3ccccc3c3c4c(c5c6ccccc6n2c5c31)C(=O)NC4 [Midostaurin] + CS(=O)(=O)CCNCc1ccc(-c2ccc3ncnc(Nc4ccc(OCc5cccc(F)c5)c(Cl)c4)c3c2)o1 [Lapatinib] (partner 2 µM)
Outline: as §1

[2] = compound: COc1cc(-c2nn([C@H]3CC[C@H](N4CCN(C(C)=O)CC4)CC3)c3ncnc(N)c23)ccc1NC(=O)c1cc2ccccc2n1C + COc1cc2c(Oc3ccc(NC(=O)C4(C(=O)Nc5ccc(F)cc5)CC4)cc3F)ccnc2cc1OCCCN1CCOCC1 [Foretinib] (partner 0.25 µM)
Outline: as §1

Midostaurin + Dasatinib = compound: CO[C@@H]1[C@H](N(C)C(=O)c2ccccc2)C[C@H]2O[C@]1(C)n1c3ccccc3c3c4c(c5c6ccccc6n2c5c31)C(=O)NC4 [Midostaurin] + Cc1nc(Nc2ncc(C(=O)Nc3c(C)cccc3Cl)s2)cc(N2CCN(CCO)CC2)n1 [Dasatinib] (partner 0.075 µM)
Outline: as §1

Cell Line	relative viability (Midostaurin + Alpelisib; first compound 0.01 µM)	relative viability (Midostaurin + Alpelisib; first compound 0.03162 µM)	relative viability (Midostaurin + Alpelisib; first compound 0.1 µM)	relative viability (Midostaurin + Alpelisib; first compound 0.3162 µM)	relative viability ([1]; first compound 0.0128 µM)	relative viability ([1]; first compound 0.04048 µM)	relative viability ([1]; first compound 0.128 µM)	relative viability ([1]; first compound 1.28 µM)	relative viability (Midostaurin + Lapatinib; first compound 0.01 µM)	relative viability (Midostaurin + Lapatinib; first compound 0.03162 µM)	relative viability (Midostaurin + Lapatinib; first compound 0.1 µM)	relative viability (Midostaurin + Lapatinib; first compound 0.3162 µM)	relative viability ([2]; first compound 0.0128 µM)	relative viability ([2]; first compound 0.04048 µM)	relative viability ([2]; first compound 0.128 µM)	relative viability ([2]; first compound 1.28 µM)	relative viability (Midostaurin + Dasatinib; first compound 0.01 µM)	relative viability (Midostaurin + Dasatinib; first compound 0.03162 µM)	relative viability (Midostaurin + Dasatinib; first compound 0.1 µM)	relative viability (Midostaurin + Dasatinib; first compound 0.3162 µM)
HCC-44	0.831	0.837	0.761	0.607	0.367	0.187	0.305	0.22	1.01	0.985	1.04	1.13								
HCC-78	0.413	0.305	0.358	0.296	0.734	0.789	0.601	0.37	0.805	0.697	0.721	0.316	0.544	0.733	0.467	0.376	0.375	0.371	0.373	0.219
HCC-366	0.331	0.297	0.318	0.323	0.566	0.664	0.623	0.658	1.01	1.04	1.04	1.13	0.948	0.841	0.98	0.757	0.634	0.583	0.537	0.638
HCC-827	0.984	1	0.948	1.02	0.384	0.396	0.406	0.39	0.198	0.225	0.204	0.225	0.998	0.943	1.02	0.756	0.417	0.441	0.386	0.341
HOP-62	0.957	0.636	0.913	1.32	0.712	0.657	0.656	0.709	1.02	0.994	1.14	1.06	1.16	1.12	1.07	1.03	0.674	0.675	0.643	0.509
IA-LM	0.853		0.821	0.891					0.886	0.579	0.984	0.551	1.19	1.1	1.16	0.97				
LC-2-ad	0.82	0.78	0.878	0.654	0.642	0.552	0.593	0.503	0.989	0.956	0.982	0.855	0.932	0.976	0.886	0.662	0.476	0.582	0.579	0.537
LCLC-97TM1	0.251		0.185	0.211	0.501	0.377	0.461	0.416	0.73		0.846	1.12	1.06	0.692	0.864	0.887	0.822	0.798	0.827	0.968
LCLC-103H	0.932	0.979	1.04	1.06	0.397	0.327	0.342	0.358					0.774	0.972	0.616	0.65	0.545	0.456	0.389	0.416
LK-2	1.09	1.48	1.11	1.05	0.423	0.38	0.408	0.485	0.916	0.901	0.921	0.822	1.34	1.24	1.05	0.761	0.333	0.251	0.393	0.501
NCI-H441	0.817	0.669	0.536	0.736	0.855	0.757	0.849	0.812					1.09	1.29	0.998	0.89	0.677	0.533	0.552	0.405
NCI-H522					0.598	0.625	0.641	0.541									0.981	0.995	0.789	1.04
NCI-H1299	1.03	1.05	1.04	1.03					0.959	0.93	0.871	0.883	1.13	1.23	1.14	1.08				
NCI-H1623					0.622	0.508	0.603	0.53					0.855	0.696	0.763	0.595	0.53	0.594	0.507	0.652
NCI-H1650					0.41	0.57	0.435	0.479	0.757	0.791	0.878	0.581	1.07	1.45	1.14	0.911	0.336	0.34	0.254	0.254
NCI-H1703	0.343	0.369	0.27	0.209					1.04	1.08	1.1	0.317	0.297		0.262	0.167				
NCI-H1792	0.703	0.672	0.63	0.654	0.263	0.288	0.369	0.309	0.932	0.875	0.862	0.91					0.793	0.779	0.669	0.611
NCI-H2342					0.529	0.584	0.637	0.628					0.958	1.11	0.914	0.731	0.332	0.305	0.319	0.327
SW 900					0.639	0.66	0.494	0.448					0.813	0.91	0.843	0.66	0.7	0.684	0.538	0.275
